Counter-ions that a name gives are not always drawn.
Target: CK2A1 (CK2α/β) (Homo sapiens, UniProt P68400)
Test: CK2 kinase assay, CK2A1 (CK2α/β)
Format: biochemical
Details: Table A; read-out: CK2A1 (CK2α/β) (IC50)

CK2A1 (CK2α/β), sequence (P68400 whole entry, species assumed): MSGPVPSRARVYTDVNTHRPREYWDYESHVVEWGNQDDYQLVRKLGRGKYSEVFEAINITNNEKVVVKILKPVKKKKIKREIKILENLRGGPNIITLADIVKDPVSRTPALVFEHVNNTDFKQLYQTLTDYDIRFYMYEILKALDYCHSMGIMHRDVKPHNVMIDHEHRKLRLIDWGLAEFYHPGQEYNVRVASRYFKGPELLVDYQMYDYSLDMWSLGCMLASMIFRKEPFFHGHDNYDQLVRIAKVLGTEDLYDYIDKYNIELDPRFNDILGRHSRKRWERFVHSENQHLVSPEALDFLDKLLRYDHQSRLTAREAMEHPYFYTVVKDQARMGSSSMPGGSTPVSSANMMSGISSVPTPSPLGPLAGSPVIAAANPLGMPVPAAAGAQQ
CK2A1 (CK2α/β), sequence (P67870 whole entry partner, species assumed): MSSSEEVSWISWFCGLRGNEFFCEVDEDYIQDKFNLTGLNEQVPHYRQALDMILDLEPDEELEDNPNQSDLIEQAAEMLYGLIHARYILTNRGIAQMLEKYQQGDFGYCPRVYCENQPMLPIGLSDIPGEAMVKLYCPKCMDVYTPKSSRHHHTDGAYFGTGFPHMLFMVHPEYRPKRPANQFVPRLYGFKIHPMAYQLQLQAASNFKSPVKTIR

IC50 [nM]	Structure (SMILES)
0.53	CCNc1nc(Nc2cc(C#N)cc(N3CC[C@@H](NC(=O)OC)[C@H](O)C3)c2F)nn2c(C#N)cnc12 [Example 381, methyl ((3R,4R)-1-(5-cyano-3-((7-cyano-4-(ethylamino)imidazo[2,1-f][1,2,4]triazin-2-yl)amino)-2-fluorophenyl)-3-hydroxypiperidin-4-yl)carbamate]
0.41	N#Cc1cc(Nc2nc(NC3CC3)c3ncc(C#N)n3n2)c(Cl)c(N2CCN(C(=O)CO)CC2)c1 [Example 78, 2-(2-chloro-5-cyano-3-(4-(2-hydroxyacetyl)piperazin-1-yl)phenylamino)-4-(cyclopropylamino) imidazo[1,2-f][1,2,4] triazine-7-carbonitrile]
1.51	N#Cc1cc(Nc2nc(NC3CC3)c3ncc(C#N)n3n2)c(Cl)c(C2(O)CCNC2)c1 (centres unmarked) [Example 651, 2-((2-chloro-5-cyano-3-(3-hydroxypyrrolidin-3-yl)phenyl)amino)-4-(cyclopropylamino)imidazo[2,1-f][1,2,4]triazine-7-carbonitrile]
0.45	N#Cc1cc(Nc2nc(NC3CC3)c3ncc(C#N)n3n2)c(Cl)c(N2CCC(NCC(O)C(F)(F)F)CC2)c1 (racemic) [Example 139, (+/−) 2-((2-chloro-5-cyano-3-(4-((3,3,3-trifluoro-2-hydroxypropyl)amino)-1-piperidinyl)phenyl)amino)-4-(cyclopropylamino)imidazo [2,1-f][1,2,4]triazine-7-carbonitrile]
0.82	CCNc1nc(Nc2cc(C#N)cc(N3CC[C@H](NC(=O)OC)[C@@H](OP(=O)(O)O)C3)c2Cl)nn2c(C#N)cnc12 [Example 338, methyl ((3S,4S)-1-(2-chloro-5-cyano-3-((7-cyano-4-(ethylamino)imidazo[2,1-f][1,2,4]triazin-2-yl)amino)phenyl)-3-(phosphonooxy)-4-piperidinyl)carbamate]
0.61	CC(=O)NN1CCN(c2cc(C#N)cc(Nc3nc(NC4CC4)c4ncc(C#N)n4n3)c2Cl)CC1 [Example 789, N-(4-(2-chloro-5-cyano-3-((7-cyano-4-(cyclopropylamino)imidazo[2,1-f][1,2,4]triazin-2-yl)amino)phenyl)piperazin-1-yl)acetamide]
1.81	CCNc1nc(Nc2ccc3c(c2)c(C#N)cn3C2CCN(C3CN(C[C@@H](C)O)C3)CC2)nn2c(C#N)cnc12 [Example 833, (R)-2-((3-cyano-1-(1-(1-(2-hydroxypropyl)azetidin-3-yl)piperidin-4-yl)-1H-indol-5-yl)amino)-4-(ethylamino)imidazo[2,1-f][1,2,4]triazine-7-carbonitrile]
2.64	CCNC(=O)NCC1CN(c2cc(C#N)cc(Nc3nc(NC4CC4)c4ncc(C#N)n4n3)c2Cl)CCO1 (centres unmarked) [Example 711, 1-{[4-(2-chloro-5-cyano-3-{[7-cyano-4-(cyclopropylamino)imidazo[2,1-f][1,2,4]triazin-2-yl]amino}phenyl)morpholin-2-yl]methyl}-3-ethylurea]
6.67	CN1C(=O)CNC12CCN(c1cc(C#N)cc(Nc3nc(NC4CC4)c4ncc(C#N)n4n3)c1Cl)CC2 (racemic) [Example 785, (+/−)-2-((2-chloro-5-cyano-3-(1-methyl-2-oxo-1,4,8-triazaspiro[4.5]decan-8-yl)phenyl)amino)-4-(cyclopropylamino)imidazo[2,1-f][1,2,4]triazine-7-carbonitrile]
2.59	C[N+]1([O-])CCN(C2CN(c3cc(C#N)cc(Nc4nc(NC5CC5)c5ncc(C#N)n5n4)c3Cl)C2)CC1 [Example 169, 2-((2-chloro-5-cyano-3-(3-(4-methyl-4-oxido-1-piperazinyl)-1-azetidinyl)phenyl)amino)-4-(cyclopropylamino)imidazo [2,1-f][1,2,4]triazine-7-carbonitrile]
3.82	CCNc1nc(Nc2cc(C#N)cc(N3CC[C@@H](NC(=O)OC)[C@H](OC(=O)[C@@H](N)[C@@H](C)O)C3)c2Cl)nn2c(C#N)cnc12 [Example 810, (2S,3R)-(3R,4R)-1-(2-chloro-5-cyano-3-((7-cyano-4-(ethylamino)imidazo[2,1-f][1,2,4]triazin-2-yl)amino)phenyl)-4-((methoxycarbonyl)amino)piperidin-3-yl 2-amino-3-hydroxybutanoate hydrochloride]
0.44	CCNc1nc(Nc2cc(C#N)cc(N3CC[C@@H](NC(=O)OC)[C@H](OC(=O)[C@@H](N)CCCNC(=N)N)C3)c2Cl)nn2c(C#N)cnc12 [Example 808, (S)-(3R,4R)-1-(2-chloro-5-cyano-3-((7-cyano-4-(ethylamino)imidazo[2,1-f][1,2,4]triazin-2-yl)amino)phenyl)-4-((methoxycarbonyl)amino)piperidin-3-yl 2-amino-5-guanidinopentanoate trihydrochloride]
1.71	N#Cc1cc(CN2CCS(=O)(=O)CC2)c(Cl)c(Nc2nc(NC3CC3)c3ncc(C#N)n3n2)c1 [Example 671, 2-((2-chloro-5-cyano-3-((1,1-dioxidothiomorpholino)methyl)phenyl)amino)-4-(cyclopropylamino)imidazo[2,1-f][1,2,4]triazine-7-carbonitrile]
3.49	N#Cc1cnc2c(NC3CC3)nc(Nc3cc(C(F)F)cc(N4CCN(C5CCOC5)CC4)c3Cl)nn12 (racemic) [Example 265, (+/−) 2-(2-chloro-5-(difluoromethyl)-3-(4-(tetrahydrofuran-3-yl)piperazin-1-yl)phenylamino)-4-(cyclopropylamino)imidazo[1,2-f][1,2,4]triazine-7-carbonitrile]
1.09	N#Cc1cc(Nc2nc(NC3CC3)c3ncc(C#N)n3n2)c(Cl)c(N2CCN(CC(O)CF)CC2=O)c1 (racemic) [Example 622, (+/−)-2-((2-chloro-5-cyano-3-(4-(3-fluoro-2-hydroxypropyl)-2-oxopiperazin-1-yl)phenyl)amino)-4-(cyclopropylamino)imidazo[2,1-f][1,2,4]triazine-7-carbonitrile]
4.37	CC(CC(C)c1cc(Cl)c(Nc2nc(NC3CC3)c3ncc(C#N)n3n2)cc1C#N)NCCC(F)(F)F (single isomer, unassigned) [Example 735, 2-[(2-chloro-5-cyano-4-{4-[(3,3,3-trifluoropropyl)amino]pentan-2-yl}phenyl)amino]-4-(cyclopropylamino)imidazo [2,1-f][1,2,4]triazine-7-carbonitril]
1.18	CC(=O)NCC1CN(c2cc(C#N)cc(Nc3nc(NC4CC4)c4ncc(C#N)n4n3)c2Cl)CCO1 (centres unmarked) [Example 712, N-{[4-(2-chloro-5-cyano-3-{[7-cyano-4-(cyclopropylamino)imidazo[2,1-f][1,2,4]triazin-2-yl]amino}phenyl)morpholin-2-yl]methyl}acetamide]
3.28	CCNc1nc(Nc2cc(C#N)cc(N3CCC(N(C)C4COC4)CC3)c2Cl)nn2c(C#N)cnc12 [Example 365, 2-((2-chloro-5-cyano-3-(4-(methyl(oxetan-3-yl)amino)piperidin-1-yl)phenyl)amino)-4-(ethylamino)imidazo[2,1-f][1,2,4]triazine-7-carbonitrile]
0.96	N#Cc1cnc2c(NC3CC3)nc(Nc3cc(C(F)F)cc(N4CCNCC4)c3Cl)nn12 [Example 246, 2-((2-chloro-5-(difluoromethyl)-3-(1-piperazinyl)phenyl)amino)-4-(cyclopropylamino)imidazo[2,1-f][1,2,4]triazine-7-carbonitrile]
2.68	Cc1cc(CNC2CCN(c3cc(C#N)cc(Nc4nc(NC5CC5)c5ncc(C#N)n5n4)c3Cl)CC2)on1 [Example 140, 2-(2-chloro-5-cyano-3-(4-((3-methylisoxazol-5-yl)methylamino)piperidin-1-yl)phenylamino)-4-(cyclopropylamino)imidazo [1,2-f][1,2,4]triazine-7-carbonitrile]
2.8	CC(C)(C(N)=O)N1CC2(CCN(c3cc(C#N)cc(Nc4nc(NC5CC5)c5ncc(C#N)n5n4)c3Cl)CC2)C1 [Example 803, 2-(7-(2-chloro-5-cyano-3-((7-cyano-4-(cyclopropylamino)imidazo[2,1-f][1,2,4]triazin-2-yl)amino)phenyl)-2,7-diazaspiro[3.5]nonan-2-yl)-2-methylpropanamide]
1.25	COC(=O)N[C@@H]1CCN(c2cc(C#N)cc(Nc3nc(NC4CC4)c4ncc(C#N)n4n3)c2Cl)C[C@H]1OC(=O)C1(N)CC1 [Example 194, (3R,4R)-1-(2-chloro-5-cyano-3-((7-cyano-4-(cyclopropylamino)imidazo[2,1-f][1,2,4]triazin-2-yl)amino)phenyl)-4-((methoxycarbonyl)amino)-3-piperidinyl 1-aminocyclopropanecarboxylate]
0.87	N#Cc1cc(Nc2nc(NC3CC3)c3ncc(C#N)n3n2)c(Cl)c(N2CCN(C3CN(C(=O)CC4CCOCC4)C3)CC2)c1 [Example 483, 2-{[2-chloro-5-cyano-3-(4-{1-[2-(oxan-4-yl)acetyl]azetidin-3-yl}piperazin-1-yl)phenyl]amino}-4-(cyclopropylamino)imidazo[2,1-f][1,2,4]triazine-7-carbonitrile]
3.92	N#Cc1cc(Nc2nc(NC3CC3)c3ncc(C#N)n3n2)c(Cl)c(N2CCN(C3CN(C(=O)C4(N)CC4)C3)CC2)c1 [Example 500, 2-[(3-{4-[1-(1-aminocyclopropanecarbonyl)azetidin-3-yl]piperazin-1-yl}-2-chloro-5-cyanophenyl)amino]-4-(cyclopropylamino)imidazo[2,1-f][1,2,4]triazine-7-carbonitrile]
1.48	CC(CO)N1CC(N2CCN(c3cc(C#N)cc(Nc4nc(NC5CC5)c5ncc(C#N)n5n4)c3Cl)CC2)C1 (centres unmarked) [Example 608, 2-[(2-chloro-5-cyano-3-{4-[1-(1-hydroxypropan-2-yl)azetidin-3-yl]piperazin-1-yl}phenyl)amino]-4-(cyclopropylamino)imidazo [2,1-f][1,2,4]triazine-7-carbonitrile]
0.7	N#Cc1cc(Nc2nc(NC3CC3)c3ncc(C#N)n3n2)c(Cl)c(C2CCN(CC(N)=O)CC2)c1 [Example 220, 2-[4-(2-chloro-5-cyano-3-{[7-cyano-4-(cyclopropylamino)imidazo[2,1-f][1,2,4]triazin-2-yl]amino}phenyl)piperidin-1-yl]acetamide]

From patent US9273057B2 (Bristol-Myers Squibb Company, priority 2012, dated 2016)
